Source: PubChem BioAssay (NCI)
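Method: 48-hour compound exposure of cells in 96-well plates, five concentrations, linear interpolation of endpoints. Abbreviation: GI50, concentration required for 50% inhibition of growth. TGI denotes the concentration required for complete inhibition of growth.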

Legend:
Assay in all cases: DTP human tumour cell line panel, 48 h
A549 NSCLC = system: A549 NSCLC
UACC-257 melanoma = system: UACC-257 melanoma
CAKI-1 renal = system: CAKI-1 renal
SK-MEL-5 melanoma = system: SK-MEL-5 melanoma
HOP-62 NSCLC = system: HOP-62 NSCLC
IGROV1 ovarian = system: IGROV1 ovarian
NCI-H522 lung = system: NCI-H522 lung
U251 CNS = system: U251 CNS
SNB-19 CNS = system: SNB-19 CNS
RPMI-8226 leukemia = system: RPMI-8226 leukemia

Compound | GI50 (A549 NSCLC) [µM] | TGI (A549 NSCLC) [µM] | GI50 (UACC-257 melanoma) [µM] | TGI (UACC-257 melanoma) [µM] | GI50 (CAKI-1 renal) [µM] | TGI (CAKI-1 renal) [µM] | GI50 (SK-MEL-5 melanoma) [µM] | TGI (SK-MEL-5 melanoma) [µM] | GI50 (HOP-62 NSCLC) [µM] | TGI (HOP-62 NSCLC) [µM] | GI50 (IGROV1 ovarian) [µM] | TGI (IGROV1 ovarian) [µM] | GI50 (NCI-H522 lung) [µM] | TGI (NCI-H522 lung) [µM] | GI50 (U251 CNS) [µM] | TGI (U251 CNS) [µM] | GI50 (SNB-19 CNS) [µM] | TGI (SNB-19 CNS) [µM] | GI50 (RPMI-8226 leukemia) [µM] | TGI (RPMI-8226 leukemia) [µM]
NCCCOc1cc(Cl)ccc1NC(=O)c1cc2ccccc2cc1OCCCN | 1.54 | 3.06 | 2.02 | 3.69 | 1.6 | 3.64 | 1.47 | 2.81 | 1.26 | 2.59 | 0.678 | 2.28 | 0.575 | 2.34 | 1.71 | 3.24 | 1.62 | 3.21 | – | –
COc1ccc(-c2cc(-c3ccc(Nc4ccnc5cc(Cl)ccc45)cc3)nc(N3CCOCC3)n2)cc1 | – | – | – | – | – | – | – | – | – | – | – | – | – | – | – | – | 3.86 | > 100 | 3.79 | > 100
N#Cc1c(-c2ccco2)cc(-c2ccc(N)cc2)[nH]c1=O | – | > 100 | – | > 100 | – | – | – | > 100 | – | > 100 | – | > 100 | – | > 100 | – | > 100 | – | > 100 | – | > 100
COc1cc(OC)c2sc(-c3ccc(-n4cncc4-c4cc(OC)c(OC)c(OC)c4)cc3)nc2c1 | 6.16 | > 100 | > 100 | > 100 | – | – | 2.46 | > 100 | 75.9 | > 100 | 5.87 | > 100 | 3.27 | > 100 | 4.15 | > 100 | > 100 | > 100 | 5.39 | > 100
NC(=O)CNc1ccc([As]=[As]c2ccc(NCC(N)=O)cc2)cc1 (stereo not given) | 23.5 | > 100 | 12.4 | 39.6 | 2.41 | 17.9 | 1.95 | 5.17 | 3.94 | 14.6 | 3.37 | 23.8 | – | – | 1.57 | 23.2 | 4.7 | 18.2 | 2.61 | 10.8
NC(CCc1ncc(C(=O)O)s1)C(=O)O (stereo not given) | – | > 100 | – | > 100 | – | > 100 | – | > 100 | – | – | – | > 100 | – | > 100 | – | > 100 | – | – | – | > 100
Clc1nc(Cl)c2ncn(Cc3ccccc3Cn3cnc4c(Cl)nc(Cl)nc43)c2n1 | 6.9 | 21.4 | 9.62 | 25.4 | 2.32 | 6.41 | 1.81 | 4.13 | 9.11 | 19.3 | 3.14 | 8.46 | 4.28 | 13.7 | 2.05 | 4.63 | 2.9 | > 26.1 | – | –
O=C1CC2CCN(C(=O)c3ccccc3)CC2CCN1 (stereo not given) | – | > 100 | – | > 100 | – | – | – | > 100 | – | > 100 | – | > 100 | – | – | – | > 100 | – | > 100 | – | > 100
CCOC(=O)C1=C(Nc2ccc(Br)cc2)OCC1=O | – | > 100 | – | > 100 | – | > 100 | – | > 100 | – | > 100 | – | > 100 | – | > 100 | – | > 100 | – | > 100 | – | –
